Results: US20230181614A1, “ADMINISTRATION OF CITICOLINE TO IMPROVE COGNITIVE PERFORMANCE, ATTENTIONAL PERFORMANCE, AND MOTOR FUNCTION” (KYOWA HAKKO BIO CO., LTD., priority 2014, published 2023)

Test system: Healthy subjects, ages 13-18
Assay: General Questionnaire
Assay type: in vivo, human
Conditions: 250 mg/day
From the text: Study participants were screened by telephone prior to study enrollment. Healthy subjects, ages 13-18, with no significant medical conditions and no history of co-morbid psychiatric disorder, current Axis I or II diagnosis, or previous participation in a pharmacotherapeutic trial, were selected. Use of any psychotropic medication or any previous head injury resulting in loss of consciousness for 5 or more minutes were used as exclusion criteria. While no participant met criteria for a neuropsychiatric disorder at enrollment, clinical assessments were still completed throughout the study to evaluate changes in mood state. In addition, self-reports of sleep habits, lifestyle, and exercise routines were also administered at baseline as well as at each study visit to assess changes in health habits during study participation. Following the completion of Visit 1 assessment, participants were given their 28-day supply of citicoline (250 mg or 500 mg) or placebo, which was randomly assigned. They were instructed to take one capsule a day every day for the next 28 days. Visit 2 occurred fourteen days after Visit 1. At Visit 2, the remaining study pills were counted and participant dosage calendars were checked to ensure compliance with the protocol. Additional neuropsychological measures and clinical assessments were administered during this visit. Participants returned for Visit 3 fourteen days later, on the 28th day of their study participation. The pill bottle and the dosage calendar were collected from each participant. Urine and blood were again obtained. Participants also participated in similar clinical and neuropsychological testing and clinical measures that were given during visit 1. The General Questionnaire and Exercise and Life Style Questionnaire are self-report questionnaires designed to assess a variety of symptoms, behaviors, and self-perceptions, including mood, complexion, exercise, food, and alcohol habits of each of the participants. The General Questionnaire was administered during each of the three study visits; the Exercise and Life Style Questionnaire was administered during each of the three study visits. The General Questionnaire included five summary categories (Vision, Depression, Attention, Sleep, and Complexion) each of which had multiple individual items. Within and between group analyses are reported below for each of the summary categories.

C[N+](C)(C)CCOP(=O)(O)OP(=O)([O-])OC[C@H]1O[C@@H](n2ccc(N)nc2=O)[C@H](O)[C@@H]1O [citicoline, Cytidine 5′-diphosphocholine]
Attention Total V3-V1 Difference Mean: -5.58
Complexion Total V3-V1 Difference Mean: -0.67
Depression Total V3-V1 Difference Mean: -7.37
Sleep Total V3-V1 Difference Mean: -5.59
Vision Total V3-V1 Difference Mean: -2.26
Attention Total V3 Mean (Visit 3): 38.48
Complexion Total V3 Mean (Visit 3): 3.96
Depression Total V3 Mean (Visit 3): 21.04
Sleep Total V3 Mean (Visit 3): 18.96
Vision Total V3 Mean (Visit 3): 6.59
General Questionnaire Attention Q13, Mean (V1 (baseline)): 3.52
General Questionnaire Attention Q14, Mean (V1 (baseline)): 2.37
General Questionnaire Attention Q15, Mean (V1 (baseline)): 3.89
General Questionnaire Attention Q16, Mean (V1 (baseline)): 3.19
General Questionnaire Attention Q17, Mean (V1 (baseline)): 3.30
General Questionnaire Attention Q18, Mean (V1 (baseline)): 2.63
General Questionnaire Attention Q19, Mean (V1 (baseline)): 6.59
General Questionnaire Attention Q20, Mean (V1 (baseline)): 3.48
General Questionnaire Attention Q21, Mean (V1 (baseline)): 3.22
General Questionnaire Attention Q22, Mean (V1 (baseline)): 4.00
General Questionnaire Attention Q23, Mean (V1 (baseline)): 4.15
General Questionnaire Attention Q24, Mean (V1 (baseline)): 3.67
General Questionnaire Attention Total, Mean (V1 (baseline)): 44.31
General Questionnaire Complexion Q33, Mean (V1 (baseline)): 2.78
General Questionnaire Complexion Q34, Mean (V1 (baseline)): 1.85
General Questionnaire Complexion Total, Mean (V1 (baseline)): 4.63
General Questionnaire Depression Q4, Mean (V1 (baseline)): 2.59
General Questionnaire Depression Q5, Mean (V1 (baseline)): 3.26
General Questionnaire Depression Q6, Mean (V1 (baseline)): 2.85
General Questionnaire Depression Q7, Mean (V1 (baseline)): 4.26
General Questionnaire Depression Q8, Mean (V1 (baseline)): 2.74
General Questionnaire Depression Q9, Mean (V1 (baseline)): 3.74
General Questionnaire Depression Q10, Mean (V1 (baseline)): 2.85
General Questionnaire Depression Q11, Mean (V1 (baseline)): 2.85
General Questionnaire Depression Q12, Mean (V1 (baseline)): 3.26
General Questionnaire Depression Total, Mean (V1 (baseline)): 28.41
General Questionnaire Sleep Q25, Mean (V1 (baseline)): 3.19
General Questionnaire Sleep Q26, Mean (V1 (baseline)): 2.78
General Questionnaire Sleep Q27, Mean (V1 (baseline)): 3.26
General Questionnaire Sleep Q28, Mean (V1 (baseline)): 3.63
General Questionnaire Sleep Q29, Mean (V1 (baseline)): 3.48
General Questionnaire Sleep Q30, Mean (V1 (baseline)): 2.11
General Questionnaire Sleep Q31, Mean (V1 (baseline)): 1.96
General Questionnaire Sleep Q32, Mean (V1 (baseline)): 4.15
General Questionnaire Sleep Total, Mean (V1 (baseline)): 24.56
General Questionnaire Vision Q1, Mean (V1 (baseline)): 3.44
General Questionnaire Vision Q2, Mean (V1 (baseline)): 3.26
General Questionnaire Vision Q3, Mean (V1 (baseline)): 2.15
General Questionnaire Vision Total, Mean (V1 (baseline)): 8.85
General Questionnaire Attention Q13, Mean (V3 (day 28)): 2.74
General Questionnaire Attention Q14, Mean (V3 (day 28)): 2.48
General Questionnaire Attention Q15, Mean (V3 (day 28)): 3.15
General Questionnaire Attention Q16, Mean (V3 (day 28)): 2.63
General Questionnaire Attention Q17, Mean (V3 (day 28)): 2.48
General Questionnaire Attention Q18, Mean (V3 (day 28)): 2.26
General Questionnaire Attention Q19, Mean (V3 (day 28)): 6.41
General Questionnaire Attention Q20, Mean (V3 (day 28)): 3.22
General Questionnaire Attention Q21, Mean (V3 (day 28)): 3.15
General Questionnaire Attention Q22, Mean (V3 (day 28)): 3.35
General Questionnaire Attention Q23, Mean (V3 (day 28)): 3.70
General Questionnaire Attention Q24, Mean (V3 (day 28)): 2.96
General Questionnaire Attention Total, Mean (V3 (day 28)): 38.73
General Questionnaire Complexion Q33, Mean (V3 (day 28)): 2.30
General Questionnaire Complexion Q34, Mean (V3 (day 28)): 1.67
General Questionnaire Complexion Total, Mean (V3 (day 28)): 3.96
General Questionnaire Depression Q4, Mean (V3 (day 28)): 1.81
General Questionnaire Depression Q5, Mean (V3 (day 28)): 2.30
General Questionnaire Depression Q6, Mean (V3 (day 28)): 2.00
General Questionnaire Depression Q7, Mean (V3 (day 28)): 3.33
General Questionnaire Depression Q8, Mean (V3 (day 28)): 1.81
General Questionnaire Depression Q9, Mean (V3 (day 28)): 2.89
General Questionnaire Depression Q10, Mean (V3 (day 28)): 2.07
General Questionnaire Depression Q11, Mean (V3 (day 28)): 2.15
General Questionnaire Depression Q12, Mean (V3 (day 28)): 2.67
General Questionnaire Depression Total, Mean (V3 (day 28)): 21.04
General Questionnaire Sleep Q25, Mean (V3 (day 28)): 2.33
General Questionnaire Sleep Q26, Mean (V3 (day 28)): 2.15
General Questionnaire Sleep Q27, Mean (V3 (day 28)): 2.07
General Questionnaire Sleep Q28, Mean (V3 (day 28)): 2.78
General Questionnaire Sleep Q29, Mean (V3 (day 28)): 2.19
General Questionnaire Sleep Q30, Mean (V3 (day 28)): 1.96
General Questionnaire Sleep Q31, Mean (V3 (day 28)): 1.93
General Questionnaire Sleep Q32, Mean (V3 (day 28)): 3.56
General Questionnaire Sleep Total, Mean (V3 (day 28)): 18.96
General Questionnaire Vision Q1, Mean (V3 (day 28)): 2.33
